Activity calls are given as the source filed them.
Columns and labels:
[1] = biological target: T1, Short transient receptor potential channel 4 (Mus musculus, UniProt Q9QUQ5); experiment: SAR Analysis for the identification of selective inhibits of the transient receptor potential cation channel C4 (TRPC4): Automated Electrophysiology. [Related pubchem assays (depositor defined):AID2256]; format: functional
T1 sequence (Q9QUQ5 whole entry): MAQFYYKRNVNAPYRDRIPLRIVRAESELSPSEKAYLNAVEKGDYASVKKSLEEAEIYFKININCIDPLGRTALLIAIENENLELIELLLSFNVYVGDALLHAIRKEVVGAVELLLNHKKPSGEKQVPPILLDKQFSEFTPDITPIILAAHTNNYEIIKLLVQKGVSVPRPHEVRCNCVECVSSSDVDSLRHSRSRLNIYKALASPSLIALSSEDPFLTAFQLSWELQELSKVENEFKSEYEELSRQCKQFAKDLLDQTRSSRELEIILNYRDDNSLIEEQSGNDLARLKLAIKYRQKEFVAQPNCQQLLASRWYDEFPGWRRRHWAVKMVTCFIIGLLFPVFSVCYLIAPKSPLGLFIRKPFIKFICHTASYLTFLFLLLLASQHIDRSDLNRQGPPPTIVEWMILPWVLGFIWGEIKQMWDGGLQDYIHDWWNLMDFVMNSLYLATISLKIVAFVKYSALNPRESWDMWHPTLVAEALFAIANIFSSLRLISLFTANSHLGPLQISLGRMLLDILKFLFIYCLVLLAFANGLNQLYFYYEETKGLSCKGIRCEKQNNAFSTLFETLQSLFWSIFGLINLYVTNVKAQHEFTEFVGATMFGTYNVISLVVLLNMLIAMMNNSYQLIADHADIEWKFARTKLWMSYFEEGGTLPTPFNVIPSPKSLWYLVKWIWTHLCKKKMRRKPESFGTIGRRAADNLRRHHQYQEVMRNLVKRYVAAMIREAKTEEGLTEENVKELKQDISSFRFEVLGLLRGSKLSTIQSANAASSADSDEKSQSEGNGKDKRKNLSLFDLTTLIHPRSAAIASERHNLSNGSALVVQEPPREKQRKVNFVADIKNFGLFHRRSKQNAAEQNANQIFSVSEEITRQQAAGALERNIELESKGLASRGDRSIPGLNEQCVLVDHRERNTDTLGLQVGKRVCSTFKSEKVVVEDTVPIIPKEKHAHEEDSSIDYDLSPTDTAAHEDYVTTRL

[2] = biological target: T1, Short transient receptor potential channel 4; experiment: mouse TRPC4 block via Gq-coupled stimulation – cell-based, acetylcholine stimulus, HEK293 TRPC4, Fluo-4, SAR follow-up (AID 492996); format: functional
[3] = biological target: T1, Short transient receptor potential channel 4; experiment: SAR Analysis for the identification of selective inhibitors of the transient receptor potential cation channel C4 (TRPC4): TRPC4 Serotonin Receptor CRC MPD assay. [Related pubchem assays (depositor defined):AID2247, AID2256]; format: functional
[4] = biological target: T1, Short transient receptor potential channel 4; experiment: potency of mouse TRPC4 calcium flux blockers – cell-based, HEK293 TRPC4/mu-opioid, DAMGO stimulus, Fluo-4, dose response (AID 492994); format: functional
Galanin receptor type 2 = Galanin receptor type 2 (Homo sapiens, UniProt O43603); experiment: Dose Response cell-based high-throughput screening assay to identify antagonists of galanin receptor 2 (GALR2). [Related pubchem assays: 828, 866 ]; format: functional
Jurkat = experiment: blockers of NF-kB activation in T cells – Jurkat, luciferase reporter, luminescence, B- and T-cell, dose response (AID 489004); format: functional, cell-based; settings: Homo sapiens;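 also: NF-kB luciferase reporter Jurkat cells stimulated with PMA plus ionomycin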
[5] = HEK-293T viability loss, compound-treated – cell-based, uHTS hits, cytotoxicity control for B/T-cell NF-kB inhibitor project, dose response (AID 489019); format: functional;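 also: IC50 reflects cytotoxicity as loss of cell viability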
INS1 [6] = experiment: INS-1E survival protection against cytokine death – cell-based, luminescence, retest, dose response (AID 449756); format: functional; settings: Rattus norvegicus;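 also: cell death triggered by IL-1 beta plus TNF-alpha plus IFN-gamma mixture; protective hits raise ATP signal compared with cytokine alone wells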
Galanin receptor type 3 = Galanin receptor type 3 (Homo sapiens, UniProt O60755); experiment: Fluorescence-based cell-based primary high throughput dose response assay to identify antagonists of the Galanin Receptor 3 (GalR3).; format: functional
cells = format: functional, cell-based; settings: HEK-CNG
[7] = Luminescence Cell-Based/Microorganism Confirmation at Dose of Inhibitors of Trypanosoma cruzi Infection. [Related pubchem assays: 1885, 1968 ]; format: functional
[8] = Luminescence Cell-Based Secondary HTS screen to identify cytotoxic compounds of NIH3T3 cells. [Related pubchem assays: 1885, 1968 ]; format: functional
[9] = T. cruzi infection blockers in NIH3T3 cells – beta-gal luminescence, NIH3T3 host cells, confirmation (AID 2630); format: functional, cell-based; settings: Mus musculus
[10] = HEK-293T viability loss after treatment – luminescence, T-cell screen hits, cytotoxicity control for TCR NF-kB inhibitor project, dose response (AID 489026); format: functional, cell-based;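 also: cells exposed to compound about 14 hours before the viability readout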
Phospholipase A2 = Phospholipase A2 (Homo sapiens, UniProt P04054); experiment: phospholipase A2 activity inhibition – biochemical, set 2, counter-screen for ATG4B inhibitor project, dose response (AID 588586); format: functional
Cysteine protease ATG4B = biological target: T2, Cysteine protease ATG4B (Homo sapiens, UniProt Q9Y4P1); experiment: autophagin-1 cysteine protease inhibition – biochemical, fluorescence, set 2, dose response (AID 588584); format: functional
T2 sequence (Q9Y4P1 whole entry): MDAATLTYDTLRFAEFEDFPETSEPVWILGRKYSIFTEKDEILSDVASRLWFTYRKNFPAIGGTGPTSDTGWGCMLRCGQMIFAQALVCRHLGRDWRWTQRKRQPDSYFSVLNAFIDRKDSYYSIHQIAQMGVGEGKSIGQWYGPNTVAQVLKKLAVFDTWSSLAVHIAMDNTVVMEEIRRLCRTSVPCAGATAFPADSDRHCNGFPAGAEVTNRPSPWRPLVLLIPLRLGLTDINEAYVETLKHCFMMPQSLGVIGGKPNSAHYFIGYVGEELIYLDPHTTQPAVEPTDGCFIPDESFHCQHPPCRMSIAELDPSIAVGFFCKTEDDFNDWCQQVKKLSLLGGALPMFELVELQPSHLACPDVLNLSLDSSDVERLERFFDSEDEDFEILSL

Escherichia coli = experiment: microbe, parasite or virus in culture
HeLa = experiment: Cytotoxicity counterscreen assay for transcriptional activators of heat shock protein 70 (Hsp70). [Related pubchem assays: 1203, 1252 ]; format: functional; settings: Homo sapiens
[11] = biological target: T3, Microphthalmia-associated transcription factor (Homo sapiens, UniProt O75030); experiment: reducers of TRPM1 reporter luminescence, concentration series – cell-based, SK-MEL-5, cherry-picked, set 3, MITF inhibitor project, dose response (AID 493073); format: functional;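 also: SK-MEL-5 melanoma cells with luciferase driven by the MITF target TRPM1 promoter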
T3 sequence (O75030 whole entry): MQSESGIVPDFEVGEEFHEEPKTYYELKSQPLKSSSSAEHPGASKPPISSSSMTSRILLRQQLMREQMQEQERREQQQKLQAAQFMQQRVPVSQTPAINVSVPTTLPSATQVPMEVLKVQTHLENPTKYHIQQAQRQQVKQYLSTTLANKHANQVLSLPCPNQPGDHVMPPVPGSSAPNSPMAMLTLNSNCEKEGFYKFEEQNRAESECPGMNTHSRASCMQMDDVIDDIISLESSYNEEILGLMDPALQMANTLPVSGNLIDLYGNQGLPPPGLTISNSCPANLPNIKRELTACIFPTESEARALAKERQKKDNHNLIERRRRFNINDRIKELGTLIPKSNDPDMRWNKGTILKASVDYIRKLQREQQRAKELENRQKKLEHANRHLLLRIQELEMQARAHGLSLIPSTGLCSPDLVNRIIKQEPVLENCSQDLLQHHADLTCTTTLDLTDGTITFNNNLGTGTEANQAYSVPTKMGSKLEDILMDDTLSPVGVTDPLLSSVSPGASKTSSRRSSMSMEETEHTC

A-375 [12] = experiment: MITF: Counter assay: A375 proliferation Measured in Cell-Based System Using Plate Reader - 2084-03_Inhibitor_Dose_DryPowder_Activity. [Related pubchem assays (depositor defined):AID488944]; format: functional; settings: Homo sapiens
A-375 [13] = experiment: proliferation inhibition in MITF-low A375 cells – cell-based, cherry-pick samples, set 2, counter-screen for MITF modulator project, dose response (AID 540335); format: functional; settings: Homo sapiens
[14] = reduction of Shn3 3'UTR-driven luciferase in osteoblasts – cell-based, Clone20 osteoblasts, firefly luciferase, cherry-picked, dose response (AID 624132); format: functional;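 also: firefly luciferase luminescence from reporter carrying the Shn3 3'UTR in osteoblasts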
[15] = loss of viability in HepG2 cells – cell-based, CellTiter-Glo, cherry-picked, cytotoxicity control for Shn3 inhibitor project, dose response (AID 624134); format: functional
[16] = non-specific 3'UTR reporter inhibition in Clone20-Shn3RL – cell-based, Renilla luciferase, cherry-picked, counter-screen for Shn3 inhibitor project, dose response (AID 624133); format: functional
Paired box protein Pax-8 = Paired box protein Pax-8 (Homo sapiens, UniProt Q06710); experiment: PAX8 transcriptional activity inhibition in RMG-I – RMG-I cells, luciferase, cherry-pick, dose response (AID 687027); format: functional, cell-based;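 also: luciferase reporter driven by Pax8 target thyroperoxidase promoter measured by SteadyGlo luminescence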
[17] = CMV-driven luciferase expression suppression in HEK293 – cell-based, luminescence, dry powder, counter-screen for Pax8 inhibitor project, dose response (AID 743020); format: functional
Cytochrome P450 2C19 = Cytochrome P450 2C19 (Homo sapiens, UniProt P33261); experiment: Cytochrome panel assay with activity outcomes. Panel member name: p450-cyp2c19 Compounds with AC50 equal or less than 10 uM are considered active; format: functional
Cytochrome P450 2D6 = Cytochrome P450 2D6 (Homo sapiens, UniProt P10635);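 also: CYP2D6 member of a cytochrome P450 panel assay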
Cytochrome P450 1A2 = biological target: T4, Cytochrome P450 1A2 (Homo sapiens, UniProt P05177);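 also: PubChem cytochrome P450 panel assay, CYP1A2 panel member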
T4 sequence (P05177 whole entry): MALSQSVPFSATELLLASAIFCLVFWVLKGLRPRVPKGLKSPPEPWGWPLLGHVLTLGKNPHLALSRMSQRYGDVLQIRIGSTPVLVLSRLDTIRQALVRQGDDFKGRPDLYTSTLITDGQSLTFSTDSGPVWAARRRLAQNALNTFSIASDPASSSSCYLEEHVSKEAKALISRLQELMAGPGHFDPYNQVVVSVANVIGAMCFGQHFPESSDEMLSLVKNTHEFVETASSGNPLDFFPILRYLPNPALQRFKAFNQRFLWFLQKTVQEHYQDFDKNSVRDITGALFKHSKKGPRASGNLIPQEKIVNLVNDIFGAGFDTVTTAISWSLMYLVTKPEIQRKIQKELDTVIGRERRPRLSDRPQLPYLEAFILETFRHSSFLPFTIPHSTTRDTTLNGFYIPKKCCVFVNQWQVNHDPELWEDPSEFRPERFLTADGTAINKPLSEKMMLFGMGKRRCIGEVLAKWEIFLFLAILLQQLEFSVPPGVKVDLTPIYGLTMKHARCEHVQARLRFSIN

Cytochrome P450 3A4 = Cytochrome P450 3A4 (Homo sapiens, UniProt P08684);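 also: CYP3A4 tested as one member of a cytochrome P450 panel screen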
Cytochrome P450 2C9 = Cytochrome P450 2C9 (Homo sapiens, UniProt P11712)
INS1 [18] = experiment: beta-cell survival under cytokine stress – INS-1E, ATP luminescence, dry powder, dose response (AID 488844); format: functional, cell-based; settings: Rattus norvegicus
INS1 [19] = experiment: INS-1E mitochondrial potential rescue under cytokines – cell-based, JC-1 fluorescence ratio, dry powder, dose response (AID 488931); format: functional; settings: Rattus norvegicus
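For CC50 in this document: cells exposed to compound for 16 hours before readout.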

Sequence of Cytochrome P450 2D6 (P10635 whole entry): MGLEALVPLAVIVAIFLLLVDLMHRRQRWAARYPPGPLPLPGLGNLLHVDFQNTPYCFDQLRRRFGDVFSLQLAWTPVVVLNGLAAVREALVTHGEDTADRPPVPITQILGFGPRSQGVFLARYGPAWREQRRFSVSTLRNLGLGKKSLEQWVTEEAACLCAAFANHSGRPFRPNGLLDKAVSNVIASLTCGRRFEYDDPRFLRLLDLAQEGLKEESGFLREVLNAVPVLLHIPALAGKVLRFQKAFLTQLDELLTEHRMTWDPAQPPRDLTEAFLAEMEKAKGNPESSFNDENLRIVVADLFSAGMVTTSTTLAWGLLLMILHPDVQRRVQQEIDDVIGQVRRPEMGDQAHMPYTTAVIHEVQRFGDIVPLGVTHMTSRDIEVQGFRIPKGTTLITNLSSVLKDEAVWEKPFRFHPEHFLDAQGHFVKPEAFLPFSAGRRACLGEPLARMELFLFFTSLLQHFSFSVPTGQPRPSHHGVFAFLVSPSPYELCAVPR
Sequence of Phospholipase A2 (P04054 whole entry): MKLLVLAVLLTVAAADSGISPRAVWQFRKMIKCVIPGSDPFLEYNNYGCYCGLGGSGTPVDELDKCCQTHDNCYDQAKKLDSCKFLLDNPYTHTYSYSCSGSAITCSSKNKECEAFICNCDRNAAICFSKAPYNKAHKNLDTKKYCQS
Sequence of Galanin receptor type 3 (O60755 whole entry): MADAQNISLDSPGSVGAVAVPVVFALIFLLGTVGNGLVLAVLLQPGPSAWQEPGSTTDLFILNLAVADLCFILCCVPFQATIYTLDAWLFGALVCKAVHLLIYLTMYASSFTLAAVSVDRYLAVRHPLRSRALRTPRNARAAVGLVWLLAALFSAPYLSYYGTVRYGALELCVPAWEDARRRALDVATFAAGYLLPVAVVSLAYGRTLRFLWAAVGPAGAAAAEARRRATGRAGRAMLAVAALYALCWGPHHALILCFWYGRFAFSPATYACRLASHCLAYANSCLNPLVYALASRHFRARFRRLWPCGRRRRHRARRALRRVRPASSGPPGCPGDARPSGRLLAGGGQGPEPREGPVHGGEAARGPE
Sequence of Cytochrome P450 2C19 (P33261 whole entry): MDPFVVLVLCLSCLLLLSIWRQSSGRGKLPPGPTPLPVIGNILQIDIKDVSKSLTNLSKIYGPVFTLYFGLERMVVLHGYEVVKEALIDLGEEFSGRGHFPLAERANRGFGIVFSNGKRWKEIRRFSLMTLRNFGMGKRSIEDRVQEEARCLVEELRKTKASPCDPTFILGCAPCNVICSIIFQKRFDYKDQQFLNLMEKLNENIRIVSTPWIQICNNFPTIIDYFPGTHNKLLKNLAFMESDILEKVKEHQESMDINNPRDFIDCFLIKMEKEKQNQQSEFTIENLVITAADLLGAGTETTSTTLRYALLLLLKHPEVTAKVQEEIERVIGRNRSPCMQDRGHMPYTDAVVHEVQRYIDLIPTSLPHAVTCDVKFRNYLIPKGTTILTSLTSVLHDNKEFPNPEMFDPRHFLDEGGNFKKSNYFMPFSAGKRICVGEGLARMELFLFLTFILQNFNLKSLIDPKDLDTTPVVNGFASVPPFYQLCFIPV
Sequence of Cytochrome P450 2C9 (P11712 whole entry): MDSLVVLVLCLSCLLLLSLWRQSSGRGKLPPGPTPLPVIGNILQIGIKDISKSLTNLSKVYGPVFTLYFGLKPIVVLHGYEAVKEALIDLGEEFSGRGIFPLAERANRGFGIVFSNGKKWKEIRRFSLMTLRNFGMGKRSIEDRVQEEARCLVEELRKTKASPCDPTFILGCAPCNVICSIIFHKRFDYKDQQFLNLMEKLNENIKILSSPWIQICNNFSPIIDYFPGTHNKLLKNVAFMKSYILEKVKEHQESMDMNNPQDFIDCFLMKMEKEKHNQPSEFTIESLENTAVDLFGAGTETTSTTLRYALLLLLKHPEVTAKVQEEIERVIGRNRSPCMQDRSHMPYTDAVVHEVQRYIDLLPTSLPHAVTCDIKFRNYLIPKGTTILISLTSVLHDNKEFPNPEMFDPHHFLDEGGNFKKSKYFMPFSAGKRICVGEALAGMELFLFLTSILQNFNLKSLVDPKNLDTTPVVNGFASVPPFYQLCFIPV
Sequence of Paired box protein Pax-8 (Q06710 whole entry): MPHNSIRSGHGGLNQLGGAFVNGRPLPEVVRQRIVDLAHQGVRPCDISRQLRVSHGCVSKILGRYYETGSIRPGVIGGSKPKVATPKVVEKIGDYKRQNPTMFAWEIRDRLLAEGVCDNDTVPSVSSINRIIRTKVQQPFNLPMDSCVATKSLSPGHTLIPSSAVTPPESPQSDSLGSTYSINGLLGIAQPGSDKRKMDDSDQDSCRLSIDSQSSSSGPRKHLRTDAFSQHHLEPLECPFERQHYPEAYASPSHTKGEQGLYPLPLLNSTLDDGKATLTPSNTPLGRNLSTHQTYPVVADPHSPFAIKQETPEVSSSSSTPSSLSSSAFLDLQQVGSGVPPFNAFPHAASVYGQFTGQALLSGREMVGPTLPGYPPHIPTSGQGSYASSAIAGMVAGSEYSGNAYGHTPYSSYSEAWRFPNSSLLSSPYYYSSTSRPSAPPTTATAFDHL
Sequence of Cytochrome P450 3A4 (P08684 whole entry): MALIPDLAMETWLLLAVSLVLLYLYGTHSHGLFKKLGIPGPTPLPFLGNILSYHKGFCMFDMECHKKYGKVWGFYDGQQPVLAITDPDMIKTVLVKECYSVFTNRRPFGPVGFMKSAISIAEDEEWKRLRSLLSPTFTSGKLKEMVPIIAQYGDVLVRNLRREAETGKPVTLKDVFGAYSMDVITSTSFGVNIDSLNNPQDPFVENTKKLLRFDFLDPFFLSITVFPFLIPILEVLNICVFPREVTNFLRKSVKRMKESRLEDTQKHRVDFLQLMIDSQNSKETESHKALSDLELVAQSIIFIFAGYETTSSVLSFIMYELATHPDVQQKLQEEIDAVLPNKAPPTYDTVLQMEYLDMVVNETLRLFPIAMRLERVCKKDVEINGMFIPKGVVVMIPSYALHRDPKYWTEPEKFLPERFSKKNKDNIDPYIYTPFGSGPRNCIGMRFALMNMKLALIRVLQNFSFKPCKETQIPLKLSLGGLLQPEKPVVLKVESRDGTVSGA
Sequence of Galanin receptor type 2 (O43603 whole entry): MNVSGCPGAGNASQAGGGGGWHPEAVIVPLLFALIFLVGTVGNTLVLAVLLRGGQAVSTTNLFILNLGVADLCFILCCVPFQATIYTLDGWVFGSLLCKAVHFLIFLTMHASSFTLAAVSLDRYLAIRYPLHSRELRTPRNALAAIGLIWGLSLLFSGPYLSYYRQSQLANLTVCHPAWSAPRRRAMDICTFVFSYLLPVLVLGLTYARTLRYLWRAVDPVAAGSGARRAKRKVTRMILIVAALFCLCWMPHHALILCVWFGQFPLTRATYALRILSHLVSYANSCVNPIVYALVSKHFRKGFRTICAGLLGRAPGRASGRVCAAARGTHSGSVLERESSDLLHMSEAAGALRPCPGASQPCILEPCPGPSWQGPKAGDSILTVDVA

## Cc1cc(N2CCC(C)CC2)nc2ccccc12
[1]
  IC50: 3.14 µM (active)
[2]
  IC50: 20.7 µM (active)
[3]
  IC50: 5.47 µM (active)
[4]
  IC50: 7.24 µM (active)

## Cn1nc(C(C)(C)C)cc1C(=O)NCc1ccc(N2CCCC2=O)cc1
Galanin receptor type 2
  IC50: > 42 µM (not active)
Jurkat
  IC50: > 80 µM (inactive)
[5]
  IC50: > 80 µM (inactive)
INS1 [6]
  AC50: 2.85 µM (active)
Galanin receptor type 3
  IC50: 1.13 µM (active)
cells
  EC50: > 29.9 µM (inactive)

## CC(C)c1cccc(OCCCCN(C)C)c1
[7]
  EC50: 2.18 µM (active)
[8]
  EC50: > 195 µM (not active)
[9]
  EC50: 2.18 µM (active)

## Cc1noc(C)c1CSc1nc2ccccc2c(=O)n1-c1ccccc1
[10]
  IC50: > 80 µM (inactive)
Phospholipase A2
  IC50: 10.7 µM (active)
Cysteine protease ATG4B
  IC50: 19.2 µM (active)

## CC(=O)N1Cc2cc([N+](=O)[O-])ccc2Oc2ccccc21
Escherichia coli
  AC50: 28.5 µM (active)

## CCC(=O)N1CCN(c2ccc(NC(=O)c3ccc([N+](=O)[O-])o3)cc2Cl)CC1
HeLa
  CC50: 4.57 µM (active)
[11]
  AC50: 6.09 µM (active)
A-375 [12]
  AC50: > 35 µM (active)
A-375 [13]
  AC50: > 35 µM (active)
[14]
  AC50: 0.85 µM (active)
[15]
  AC50: 20.5 µM (active)
[16]
  AC50: 5.2 µM (active)
Paired box protein Pax-8
  AC50: 4.12 µM (active)
[17]
  AC50: 2.21 µM (active)

## Cc1ncc(CO)c(/C=N/CCCCCC/N=C/c2c(CO)cnc(C)c2[O-])c1[O-].[Mg+2]
Cytochrome P450 2C19
  AC50: inactive
Cytochrome P450 2D6
  AC50: inactive
Cytochrome P450 1A2
  AC50: inactive
Cytochrome P450 3A4
  AC50: inactive
Cytochrome P450 2C9
  AC50: inactive

## COc1ccc(S(=O)(=O)N(C)C[C@@H]2Oc3c(NC(=O)Nc4cccc5ccccc45)cccc3C(=O)N(C(C)C)C[C@H]2C)cc1
INS1 [18]
  AC50: 63.7 µM (active)
INS1 [19]
  AC50: 24 µM (active)
